Laboratory results reported in the NIST ThermoML archive (doi:10.1021/je800636k).

What was measured:
[1] = 101 kPa, Liquid; for electrical conductivity: Qcond 2400 VWR international / cell constant, 1.05; for viscosity: Concentric cylinders viscometry; for mass density: Vibrating tube method
[2] = xn = mol fraction of the nth substance listed; details: 101 kPa, Liquid, x2 = 0; for electrical conductivity: Qcond 2400 VWR international / cell constant, 1.05; for viscosity: Concentric cylinders viscometry; for mass density: Vibrating tube method

CCCCn1cc[n+](C)c1C.[N-]=[N+]=[N-] [1-butyl-2,3-dimethylimidazolium azide]
[1]
Details	electrical conductivity [S/m]	mass density [kg/m3]	viscosity [mPa·s]
303.15 K	0.0488	–	–
308.15 K	0.0756	–	–
313.15 K	0.112	1070.46	338.19
318.15 K	0.159	–	–
323.15 K	0.219	1065.14	176.04
328.15 K	0.294	–	–
333.15 K	0.383	1059.83	101.63
338.15 K	0.49	–	–
343.15 K	0.614	1054.52	63.6
348.15 K	0.756	–	–
353.15 K	0.918	1049.21	42.44
358.15 K	1.1	–	–
363.15 K	1.3	1043.9	29.82
368.15 K	1.52	–	–
373.15 K	–	1038.59	21.87

CCCCn1cc[n+](C)c1C.F[B-](F)(F)F [1-butyl-2,3-dimethylimidazolium tetrafluoroborate]
[1]
Details	electrical conductivity [S/m]	mass density [kg/m3]	viscosity [mPa·s]
303.15 K	0.0758	–	–
308.15 K	0.106	–	–
313.15 K	0.145	1182.05	364.17
318.15 K	0.194	–	–
323.15 K	0.254	1175.57	204.79
328.15 K	0.327	–	–
333.15 K	0.415	1169.08	124.34
338.15 K	0.518	–	–
343.15 K	0.639	1162.6	80.35
348.15 K	0.779	–	–
353.15 K	0.939	1156.12	54.65
358.15 K	1.12	–	–
363.15 K	1.32	1149.64	38.8
368.15 K	1.55	–	–
373.15 K	–	1143.15	28.56

CCCCn1cc[n+](C)c1C.F[B-](F)(F)F [1-butyl-2,3-dimethylimidazolium tetrafluoroborate] + CCCCn1cc[n+](C)c1C.[N-]=[N+]=[N-]
[2]
Details	electrical conductivity [S/m]	mass density [kg/m3]	viscosity [mPa·s]
303.15 K	0.0758	–	–
308.15 K	0.106	–	–
313.15 K	0.145	1182.05	364.17
318.15 K	0.194	–	–
323.15 K	0.254	1175.57	204.79
328.15 K	0.327	–	–
333.15 K	0.415	1169.08	124.34
338.15 K	0.518	–	–
343.15 K	0.639	1162.6	80.35
348.15 K	0.779	–	–
353.15 K	0.939	1156.12	54.65
358.15 K	1.12	–	–
363.15 K	1.32	1149.64	38.8
368.15 K	1.55	–	–
373.15 K	–	1143.15	28.56
